Entries after “also recorded” stand apart in the source; their conditions may differ.
Experiments:
[1] = system: H-ras 12V-overexpressing mouse; assay: Splenocyte number in H-ras-transgenic mouse; type: in vivo; conditions: 50 mg/kg i.p. once every two days for 10 weeks, Tg mouse vs control group (NTg), FIG. 3A
Procedure: A neonatal […] H-ras 12V-overexpressing mouse (KCTC 10318 BP) was intraperitoneally administered with 50 mg/kg of BCA and HCA (prepared by extracting the stem bark of C. cassia with organic solvents such as methanol and performing an isolation and purification process by various column chromatography methods) for ten weeks once every two days. Six months after birth, the spleen was excised from the mouse, and a single cell suspension was prepared. Red blood cells were removed from the single cell suspension using a RBC lysis solution (Sigma), and the number of splenocytes was counted under a microscope.

[2] = system: proliferative vitreoretinopathy (PVR) model in rabbits; conditions: IOVS, 43(9), 3117-3124, 2002; cited from earlier work
[3] = target: farnesyl-protein transferase (Homo sapiens, UniProt P49356); conditions: in vitro; cited from earlier work
[4] = animal test, J. Toxicol. Pub. Health, 2003, 19, 259-266; cited from earlier work
[5] = system: human retinal pigment epithelial (hRPE) cells; conditions: IOVS, 43(9), 3117-3124, 2002; cited from earlier work
tumor cell growth = conditions: J. Biological Chemistry, 279(8), 6911-6920, 2004; cited from earlier work
angiogenesis = conditions: J. Biological Chemistry, 279(8), 6911-6920, 2004; cited from earlier work
splenocytes = assay: Splenocyte proliferation by [3H]-thymidine after LPS or ConA stimulation; type: cell-based, mouse; conditions: splenocytes of treated mice stimulated with ConA, 48 hours, FIG. 3B
Procedure: On the other hand, 2×10^5 splenocytes were aliquotted into a 96-well plate, stimulated with a cell proliferation inducer, LPS (lipopolysaccharide) or ConA (concanavalin A), and cultured for 48 hours. 1 μCi of [^3H]-thymidine was added to each well, followed by incubation for 6 hours. Cells were harvested on a nitrocellulose membrane, and radiation activity was measured using a beta scintillation counter (Wallac, Turku, Finland) to investigate proliferation ability of splenocytes.

[6] = system: H-ras 12V-overexpressing mouse; assay: Effect of BCA on incidence of liver cancer in H-ras-overexpressing mouse (liver histology); type: in vivo
Procedure: A neonatal […] H-ras 12V-overexpressing mouse (KCTC 10318 BP) was intraperitoneally administered with 50 mg/kg of BCA (prepared by reacting 2′-hydroxy-cinnamaldehyde (HCA) isolated from the stem bark of C. cassia with benzoyl chloride in the presence of triethylamine) for ten weeks once every two days. Six months after birth, the liver tissue was excised from the mouse in an aseptic state, fixed with a formaldehyde solution, and embedded in paraffin. The resulting paraffin block was sectioned into a thickness of 4 μm using a microtome (LEICA Company), and tissue sections were attached onto slides. The tissue was then stained with hematoxylin/eosin and observed under a reverse phased microscope (Model: Bx 50, Olympus Company).

[7] = 50 mg/kg i.p. once every two days for ten weeks, six months after birth

SMILES | cell number in the spleen (splenocyte number) [1] | cell number in the spleen (splenocyte number) ([1]; listed as BSA) | antiproliferative effect in PVR model [2] | inhibition of farnesyl-protein transferase [3] | toxicity in vivo [4] | apoptosis in hRPE cells [5] | inhibition of tumor cell growth (tumor cell growth) | inhibition of angiogenesis (angiogenesis) | T cell response (splenocyte proliferation) (splenocytes) | portion progressed to cancer in the liver ([6]; 50 mg/kg i.p. once every two days for ten weeks from 4 months old, liver at six months, vs control FIG. 1A) | number of immune cells in the liver [6, 7] | tumor progression to liver cancer [6, 7]
O=C/C=C/c1ccccc1OC(=O)c1ccccc1 [BCA, 2′-benzoyloxycinnamaldehyde] | increased cell number | largest increase | antiproliferative effect | inhibit; also recorded: inhibitory effects | no toxicity | induces apoptosis | inhibitory effects | inhibitory effects | highest T cell response | remarkably reduced | increased | inhibited
O=CC=Cc1ccccc1O [HCA, 2′-hydroxycinnamaldehyde, reference compound] | increased cell number |  |  | inhibitory effects |  |  | inhibitory effects | inhibitory effects |  |  |  | 

— patent US20060035968A1, “Composition for preventing cancer comprising 2'-benzoyl-oxycinnamaldehyde” (Korea Research Institute of Bioscience and Biotechnology, priority 2004, published 2006)
